Laboratory results published in PubChem BioAssay AID330 (DTP/NCI, 2004).
“And” between values parts separate entries of the source, which are not always exact repeats. Equal values may be shown once. Toxic doses and inconclusive results are not listed. Rule for the calls: active = survival T/C of 150% or more; inactive = T/C below 125% in these data. Peptide text beside a SMILES is read from it. * marks the point of attachment. Boc = CC(C)(C)OC(=O)*; NHNH2 = NN*

Tested on: P388 leukemia ip, CD2F1 mice, survival T/C
Assay: NCI In Vivo Anticancer Drug Screen. Data for tumor model P388 Leukemia (intraperitoneal) in CD2F1 (CDF1) mice
Settings: endpoint: median survival time, higher = longer survival
How it was run: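 Mice carrying the transplanted tumor received test compound or vehicle. Survival was recorded in each group, and the value is the treated-group measurement divided by that of the vehicle-treated control group.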

[1] = dose: 50.0 mg/kg/injection, schedule: Q01DX009 (ip), vehicle: saline
[2] = dose: 100.0 mg/kg/injection, schedule: Q01DX009 (ip), vehicle: saline
[3] = dose: 200.0 mg/kg/injection, schedule: Q01DX009 (ip), vehicle: saline
[4] = dose: 60.0 mg/kg/injection, schedule: Q01DX005 (ip), vehicle: saline with Tween-80
[5] = dose: 120.0 mg/kg/injection, schedule: Q01DX005 (ip), vehicle: saline with Tween-80
[6] = dose: 240.0 mg/kg/injection, schedule: Q01DX005 (ip), vehicle: saline with Tween-80
[7] = dose: 100.0 mg/kg/injection, schedule: Q04DX003 (ip), vehicle: saline with Tween-80
[8] = dose: 200.0 mg/kg/injection, schedule: Q04DX003 (ip), vehicle: saline with Tween-80
[9] = dose: 400.0 mg/kg/injection, schedule: Q04DX003 (ip), vehicle: saline with Tween-80
[10] = dose: 50.0 mg/kg/injection, schedule: Q01DX005 (ip), vehicle: Klucel (hydroxypropylcellulose) (HPC)
[11] = dose: 100.0 mg/kg/injection, schedule: Q01DX005 (ip), vehicle: Klucel (hydroxypropylcellulose) (HPC)
[12] = dose: 200.0 mg/kg/injection, schedule: Q01DX005 (ip), vehicle: Klucel (hydroxypropylcellulose) (HPC)
[13] = dose: 6.25 mg/kg/injection, schedule: Q01DX005 (ip), vehicle: saline with Tween-80
[14] = dose: 12.5 mg/kg/injection, schedule: Q01DX005 (ip), vehicle: saline with Tween-80

Measured: T/C

CC(C)CC(NC(=O)C(Cc1c[nH]c2ccccc12)NC(=O)OC(C)(C)C)C(=O)NN (stereo not drawn) (Boc-Trp-Leu-NHNH2; configuration not given here)
inactive: dose: 12.5 mg/kg/injection, schedule: Q01DX009 (ip), vehicle: other 100 % of control | dose: 25.0 mg/kg/injection, schedule: Q01DX009 (ip), vehicle: other 94 % of control | dose: 50.0 mg/kg/injection, schedule: Q01DX009 (ip), vehicle: other 97 % of control | dose: 100.0 mg/kg/injection, schedule: Q01DX009 (ip), vehicle: other 105 % of control and 110 % of control

CCOC(=O)/C=C(/CC(=O)OCC)OCC
inactive: [1] 100 % of control | [2] 89 % of control | [3] 90 % of control | dose: 400.0 mg/kg/injection, schedule: Q01DX009 (ip), vehicle: saline 101 % of control

COc1ccc(C(O)C2CC(=O)NN=C2C)cc1OC (stereo not given)
inactive: [4] 100 % of control | [5] 100 % of control | [6] 99 % of control

COc1ccc(C(=Nc2ccc(C)cc2)c2ccc([N+](=O)[O-])cc2)cc1
inactive: dose: 100.0 mg/kg/injection, schedule: Q01DX009 (ip), vehicle: saline with Tween-80 90 % of control | [7] 95 % of control | dose: 200.0 mg/kg/injection, schedule: Q01DX009 (ip), vehicle: saline with Tween-80 90 % of control | [8] 95 % of control | dose: 400.0 mg/kg/injection, schedule: Q01DX009 (ip), vehicle: saline with Tween-80 90 % of control | [9] 100 % of control

CC(=O)Nc1ccc2nc3n(c(=O)c2c1)CCCC3
inactive: dose: 100.0 mg/kg/injection, schedule: Q01DX001 (ip), vehicle: Klucel (hydroxypropylcellulose) (HPC) 101 % of control | dose: 200.0 mg/kg/injection, schedule: Q01DX001 (ip), vehicle: Klucel (hydroxypropylcellulose) (HPC) 101 % of control | dose: 400.0 mg/kg/injection, schedule: Q01DX001 (ip), vehicle: Klucel (hydroxypropylcellulose) (HPC) 100 % of control

C=CCOc1cc2c(cc1C/C=C/c1cc(OC)c(OC)c(OC)c1)OCO2
inactive: dose: 15.0 mg/kg/injection, schedule: Q01DX005 (ip), vehicle: saline with Tween-80 101 % of control | dose: 30.0 mg/kg/injection, schedule: Q01DX005 (ip), vehicle: saline with Tween-80 104 % of control | [4] 104 % of control and 89 % of control

CC1C2Cc3ccc(O)cc3C1(C)CCN2C (stereo not given)
inactive: [4] 92 % of control | [5] 100 % of control

O=C1CC(c2ccccc2)C(=O)N1CN1CCOCC1 (stereo not given)
inactive: [10] 110 % of control | [11] 97 % of control | [12] 97 % of control

O=C(O)C1CCC(=O)N1C(=O)OCc1ccccc1 (stereo not given)
inactive: [7] 95 % of control | [8] 90 % of control | [9] 90 % of control

Cc1ccc(N(CN2C(=O)CCC2=O)CS(=O)(=O)c2ccc(Cl)cc2)cc1
inactive: dose: 15.0 mg/kg/injection, schedule: Q01DX005 (ip), vehicle: Klucel (hydroxypropylcellulose) (HPC) 107 % of control | dose: 30.0 mg/kg/injection, schedule: Q01DX005 (ip), vehicle: Klucel (hydroxypropylcellulose) (HPC) 91 % of control | dose: 60.0 mg/kg/injection, schedule: Q01DX005 (ip), vehicle: Klucel (hydroxypropylcellulose) (HPC) 93 % of control and 95 % of control | dose: 240.0 mg/kg/injection, schedule: Q01DX005 (ip), vehicle: Klucel (hydroxypropylcellulose) (HPC) 90 % of control

N#Cc1c(F)cccc1N(Cc1cccnc1)C(=S)Nc1ccc(Cl)c(Cl)c1
inactive: [10] 110 % of control | [11] 110 % of control | [12] 105 % of control

CCN=C1C=CC(=C(c2ccc(N(CC)CC)cc2)c2ccc(N(CC)CC)cc2)c2ccccc21
inactive: [13] 110 % of control and 113 % of control | [14] 118 % of control (2×) and 119 % of control | dose: 25.0 mg/kg/injection, schedule: Q01DX005 (ip), vehicle: saline with Tween-80 115 % of control

NC(=O)c1ccc(NC(=O)/C=C/C(=O)Nc2ccc(C(N)=O)cn2)nc1
inactive: dose: 1.65 mg/kg/injection, schedule: Q01DX009 (ip), vehicle: saline with Tween-80 109 % of control | dose: 2.5 mg/kg/injection, schedule: Q01DX009 (ip), vehicle: saline with Tween-80 118 % of control | dose: 2.5 mg/kg/injection, schedule: Q04DX003 (ip), vehicle: saline with Tween-80 100 % of control | dose: 3.75 mg/kg/injection, schedule: Q01DX009 (ip), vehicle: saline with Tween-80 104 % of control | dose: 5.0 mg/kg/injection, schedule: Q04DX003 (ip), vehicle: saline with Tween-80 100 % of control | dose: 10.0 mg/kg/injection, schedule: Q04DX003 (ip), vehicle: saline with Tween-80 100 % of control and 118 % of control | dose: 20.0 mg/kg/injection, schedule: Q04DX003 (ip), vehicle: saline with Tween-80 100 % of control | dose: 625.0 micrograms/kg/injection, schedule: Q01DX009 (ip), vehicle: saline with Tween-80 104 % of control | dose: 1250.0 micrograms/kg/injection, schedule: Q01DX009 (ip), vehicle: saline with Tween-80 122 % of control

O=c1[nH]cc(CN(CCO)CCO)c(=O)[nH]1
inactive: dose: 50.0 mg/kg/injection, schedule: Q01DX005 (ip), vehicle: saline 106 % of control | dose: 100.0 mg/kg/injection, schedule: Q01DX005 (ip), vehicle: saline 105 % of control | dose: 200.0 mg/kg/injection, schedule: Q01DX005 (ip), vehicle: saline 99 % of control

C/C(=N\NC(=S)N1CC2CCC(CC2)C1)c1cccc(C)n1
inactive: [13] 102 % of control and 114 % of control | [14] 112 % of control

C[CH2][Ge]([CH2]C)[CH2]C.C[CH2][Ge]([CH2]C)[O]C
inactive: [1] 106 % of control | [2] 92 % of control | [3] 92 % of control

Cn1c(=O)c2nsnc2n(C)c1=O
inactive: dose: 50.0 mg/kg/injection, schedule: Q04DX002 (ip), vehicle: Klucel (hydroxypropylcellulose) (HPC) 110 % of control | dose: 100.0 mg/kg/injection, schedule: Q04DX002 (ip), vehicle: Klucel (hydroxypropylcellulose) (HPC) 100 % of control and 110 % of control | dose: 200.0 mg/kg/injection, schedule: Q04DX002 (ip), vehicle: Klucel (hydroxypropylcellulose) (HPC) 107 % of control

CCC#CCC1(CC#CCC)CC1C (stereo not given)
inactive: dose: 50.0 mg/kg/injection, schedule: Q01DX005 (ip), vehicle: saline with Tween-80 100 % of control | dose: 100.0 mg/kg/injection, schedule: Q01DX005 (ip), vehicle: saline with Tween-80 99 % of control | dose: 200.0 mg/kg/injection, schedule: Q01DX005 (ip), vehicle: saline with Tween-80 107 % of control

CCN1c2ccccc2CC(C#N)(CCN(C)C)c2ccccc21 (stereo not given)
inactive: dose: 12.5 mg/kg/injection, schedule: Q01DX009 (ip), vehicle: saline with Tween-80 100 % of control | dose: 25.0 mg/kg/injection, schedule: Q01DX009 (ip), vehicle: saline with Tween-80 99 % of control | dose: 50.0 mg/kg/injection, schedule: Q01DX009 (ip), vehicle: saline with Tween-80 104 % of control

O=C(CCCl)Nc1cc2ccccc2oc1=O
inactive: [4] 91 % of control | [5] 92 % of control | [6] 89 % of control

CC(NC(=O)C(Cc1ccccc1)NC(=O)c1ccc[n+](Cc2ccccc2)c1)C(N)=O (stereo not given)
inactive: dose: 60.0 mg/kg/injection, schedule: Q01DX005 (ip), vehicle: saline 97 % of control | dose: 120.0 mg/kg/injection, schedule: Q01DX005 (ip), vehicle: saline 93 % of control

Oc1ccc(Cl)cc1C1CCCCC1
inactive: [1] 100 % of control | [2] 100 % of control | [3] 98 % of control
